According to US4771050A, “Thiolactam-n-acetic acid derivatives” (Takeda Chemical Industries, Ltd., priority 1986, dated 1988):
Read-outs that look alike come from different tables or passages of the source.

What was measured:
[1] = test system: sorbitol accumulation in sciatic nerves of streptozocin diabetic rats; assay: Inhibition of sorbitol accumulation in the tissue of experimentally induced diabetic rat; type: in vivo, rat (Spraque-Dawley); conditions: for sorbitol accumulation: sciatic nerve, untreated control group = 100; for inhibition of sorbitol accumulation in vivo compared with control compounds (in words): vs control compounds A, B, C
Protocol: Spraque-Dawley rats (male, 5-7-week-old, 5 animals per group) were fasted for 18 hours, and received injection of 70 mg/kg of streptozocin (Cal Biochem Co.) into the caudal vein under anesthesia with ether, so that diabetic rats were obtained. From immediately after the injection of streptozocin these rats were given orally the test compound of 50 mg/kg or 30 mg/kg in the form of 5% gum arabic suspension twice a day (at 10 a.m. and 5 p.m.) for 2 days. During this period the rats were allowed to take CE-2 diet (Clea Japan, Inc.) and water ad libitum. In the morning on the 3rd day (9 a.m.) the rats were killed (decapitation and venesection), and immediately the sciatic nerves were isolated, from which sorbitol was extracted according to the method of M. J. Peterson et al. described in Metabolism, 28, 456 (1979) and the sorbitol level was determined by the enzymatic method of P.S. Clements et al. in Science, 166, 1007 (1969).

[2] = target: T1, aldose reductase from human placenta (Homo sapiens, UniProt P15121); assay: Aldose reductase inhibition (in vitro study); type: biochemical; conditions: for inhibition at 1 µM: 10^-6 M; for inhibition at 0.1 µM: 10^-7 M
T1 construct: Partially purified aldose reductase from human placenta; from tissue; host or cells: human placenta
Description: 1. Aldose reductase inhibition (in vitro study)
Partially purified aldose reductase from human placenta was used for the test of aldose reductase inhibitory effect according to the method of S. Hayman et al. described in Journal of Biological Chemistry, 240, 877 (1965) or the method of J. H. Kinoshita et al. described in Metabolism, 28, Supplement 1, 462 (1979).

[3] = test system: washed rat platelets; assay: Inhibitory action on platelet aggregation (washed rat platelets); type: cell-based, rat (Spraque-Dawley); conditions: for inhibition at 300 µM: 3 × 10^-4 M; for inhibition at 100 µM: 10^-4 M
Protocol: 3. Inhibitory action on platelet aggregation
Effect of 3,4-dihydro-2,8-diisopropyl-3-thioxo-2H-1,4-benzoxazine-4-acetic acid on platelet aggregation was examined using washed rat platelets.
Platelet rich plasma (PRP) was prepared by centrifuging the blood at 150 xg for 15 min at room temperature. To prepare washed platelets, the PRP was centrifuged at 1500 xg for 10 min and the precipitated platelets were resuspended in Tyrode's solution. The number of platelets used was 7×10^5 cells/mm^3. Platelet aggregation was measured by the turbidmetric method using an aggregometer (Nikko Bioscience, Model PAR-4M, Tokyo). The test compound dissolved in 10 μl of water was added to 250 μl of washed platelet suspension and incubated at 37° C. for 3 min before 10 μl of aggregating agents ([…] of collagen, Nikko Bioscience or 10 μM of ADP, Shigma, St. Louis, Mo., at the final concentration) was added.

[4] = Acute toxicity in rats (oral); parameters: species or system rat (Wistar); conditions: in vivo, rat, mortality during 14 days
Description: (§1) Acute toxicity of 3,4-dihydro-2,8-diisopropyl-3-thioxo-2H-1,4-benzoxazine-4-acetic acid was examined in mice and rats.
(§2) The various doses of the test compound suspended in 5% gum arabic solution were orally administered to male ICR mice (4 weeks old) and male Wistar rats (5 weeks old), and then mortality was observed during 14 days. Each group consisted of 5 animals.

[5] = Acute toxicity in mice (oral); parameters: species or system mouse (ICR); conditions: in vivo, mouse, mortality during 14 days
Description: as §1, §2

[6] = 30 mg/kg orally twice a day for 2 days
[7] = 50 mg/kg orally twice a day for 2 days
[8] = Rattus norvegicus, Platelet, inducer ADP, Mean ± SD (N = 3), read-out: percent inhibition of aggregation
[9] = Rattus norvegicus, Platelet, inducer collagen, Mean ± SD (N = 3), read-out: percent inhibition of aggregation
[10] = Rattus norvegicus, Platelet, read-out: percent inhibition of aggregation, inducer ADP, Mean ± SD (N = 3)

Row | SMILES | sorbitol accumulation [1, 6] | inhibition at 1 µM [2] | inhibition at 0.1 µM [2] | sorbitol accumulation [1, 7] | also measured
1 | CC(C)C1Oc2cc(F)ccc2N(CC(=O)O)C1=S (stereo not drawn) [Example 17, 7-fluoro-3,4-dihydro-2isopropyl3-thioxo-2H-1,4-benzoxazine-4-acetic acid] | 62% | 45.7% | 2.6% |  | 
2 | CCc1cccc2c1OC(C(C)C)C(=S)N2CC(=O)O (stereo not drawn) [Example 13, 8-ethyl-3,4-dihydro-2-isopropyl-3-thioxo-2H-1,4-benzoxazine-4-acetic acid] | 35% | 46.8% | 14.9% |  | 
3 | COc1ccc2c(c1)OC(C(C)C)C(=S)N2CC(=O)O (stereo not drawn) [Example 7, 3,4-dihydro-2-isopropyl-7-methoxy-3-thioxo-2H-1,4-benzoxazine-4-acetic acid] | 27% | 50% | 14.9% |  | 
4 | CC(C)C1Sc2ccccc2N(CC(=O)O)C1=S (stereo not drawn) [Example 9, 3,4-dihydro-2-isopropyl-3-thioxo-2H-1,4-benzothiazine-4-acetic acid] | 60% | 46.4% | 20% | 46% | inhibition of sorbitol accumulation in vivo compared with control compounds (in words) [1]: The difference is particularly evident
5 | CCC(C)C1Sc2ccccc2N(CC(=O)O)C1=S (stereo not drawn) [Example 11, 3,4-dihydro-2-(1-methylpropyl)-3-thioxo-2H-1,4-benzothiazine-4-acetic acid] | 67% | 47.1% | 15.2% | 38% | inhibition of sorbitol accumulation in vivo compared with control compounds (in words) [1]: The difference is particularly evident
6 | CC(C)C1Oc2ccc(F)cc2N(CC(=O)O)C1=S (stereo not drawn) [Example 2, 6-fluoro-3,4-dihydro-2-isopropyl-3-thioxo-2H-1,4-benzoxazine-4-acetic acid] | 33% | 43.9% | 8.7% | 12% | inhibition of sorbitol accumulation in vivo compared with control compounds (in words) [1]: The difference is particularly evident
7 | COc1cccc2c1OC(C(C)C)C(=S)N2CC(=O)O (stereo not drawn) [Example 5, 3,4-dihydro-2-isopropyl-8-methoxy-3-thioxo-2H-1,4-benzoxazine-4-acetic acid] | 29% | 48.1% | 17.3% | 11% | 
8 | CC(C)C1Oc2c(F)cccc2N(CC(=O)O)C1=S (stereo not drawn) [Example 4, 8-fluoro-3,4-dihydro-2-isopropyl-3-thioxo-2H-1,4-benzoxazine-4-acetic acid] | 45% | 45.6% | 3.8% | 14% | 
9 | O=C(O)CN1C(=S)COc2ccc(F)cc21 [Control A, 6fluoro-3,4-dihydro-3-thioxo-2H--1,4benzoxazine-4-acetic acid, reference compound] | 73% | 50.8% | 25% | 60% | 
10 | O=C(O)CN1C(=S)CSc2ccccc21 [Control B, 3,4dihydro-3-thioxo-2H--1,4benzothiazine-4-acetic acid, reference compound] |  | 43.1% | 15.7% | 78% | 
11 | CCOc1cccc2c1OC(C(C)C)C(=S)N2CC(=O)O (stereo not drawn) [Example 12, 8-ethoxy-3,4-dihydro-2isopropyl3-thioxo-2H-1,4-benzoxazine-4-acetic acid] | 58% | 43% | 19.2% |  | 
12 | CC(C)C1Oc2c(C3CCCCC3)cccc2N(CC(=O)O)C1=S (stereo not drawn) [Example 20, 8-cyclohexyl-3,4-dihydro-2-isopropyl-3-thioxo2H-1,4-benzoxazine-4-acetic acid] | 25% | 38.4% | 4.6% |  | 
13 | CC(C)C1Oc2ccccc2N(CC(=O)O)C1=S (stereo not drawn) [Example 1, 3,4-dihydro-2-isopropyl-3-thioxo-2H-1,4-benzoxazine-4-acetic acid] | 51% | 46.7% | 19.1% | 18% | 
14 | CC(C)C1Oc2c(cccc2C(C)(C)C)N(CC(=O)O)C1=S (stereo not drawn) [Example 19, 8-t-butyl-3,4-dihydro-2-isopropyl-3-thioxo-2H-1,4-benzoxazine-4-acetic acid] | 15% | 39.3% | 8% |  | 
15 | Cc1cccc2c1OC(C(C)C)C(=S)N2CC(=O)O (stereo not drawn) [Example 6, 3,4-dihydro-2-isopropyl-8-methyl-3-thioxo2H-1,4-benzoxazine-4-acetic acid] | 33% | 48.2% | 9.4% | 16% | 
16 | CC(C)C1Oc2c(Cl)cccc2N(CC(=O)O)C1=S (stereo not drawn) [Example 3, 8-chloro-3,4-dihydro-2-isopropyl-3-thioxo-2H-1,4-benzoxazine-4-acetic acid] |  | 48.9% | 8.9% | 23% | 
17 | CC(C)c1cccc2c1OC(C(C)C)C(=S)N2CC(=O)O (stereo not drawn) [Example 8, 3,4-dihydro-2,8-diisopropyl-3-thioxo-2H-1,4-benzoxazine-4-acetic acid] | 30% | 50.2% | 9.1% |  | inhibitory action compared with indomethacin (in words) ([3]; ADP-induced aggregation): more potent than that of indomethacin; inhibition at 300 µM [3, 8]: 42 ± 7.1%; inhibition at 100 µM [3, 8]: 90 ± 6%; inhibition at 300 µM [3, 9]: 24.1 ± 3.4%; inhibition at 30 µM ([3]; Rattus norvegicus, Platelet, inducer collagen, 3 × 10^-5 M, Mean ± SD (N = 3), read-out: percent inhibition of aggregation): 74.5 ± 5.5%; inhibition at 60 µM ([3]; Rattus norvegicus, Platelet, inducer collagen, 6 × 10^-5 M, Mean ± SD (N = 3), read-out: percent inhibition of aggregation): 46.5 ± 1.3%; inhibition at 100 µM [3, 9]: 31.8 ± 0.9%; inhibition of aggregation of washed platelets (in words) ([3]; induced by either collagen or ADP): inhibited aggregation of washed platelets induced by either collagen or ADP in a dose related manner; LD50 at 336 h [4]: 2830 mg/kg; LD50 at 336 h [5]: 1880 mg/kg
18 | COc1ccc2c(c1)c(CC(=O)O)c(C)n2C(=O)c1ccc(Cl)cc1 [Indomethacin, reference compound] |  |  |  |  | inhibition at 300 µM [3, 10]: 97.2 ± 6.4%; inhibition at 100 µM [3, 10]: 102 ± 8.4%; inhibition at 100 µM ([3]; Rattus norvegicus, Platelet, read-out: percent inhibition of aggregation, inducer collagen, Mean ± SD (N = 3)): 28.5 ± 1.9%
19 | CC1Sc2ccccc2N(CC(=O)O)C1=S (stereo not drawn) [Control C, 3,4dihydro-2-methyl-3-thioxo-2H--1,4benzothiazine-4-acetic acid, reference compound] |  | 48.7% | 19.6% | 71% | 
